From ChEMBL document CHEMBL1146187, “Synthesis, molecular modeling studies, and selective inhibitory activity against monoamine oxidase of N,N'-bis[2-oxo-2H-benzopyran]-3-carboxamides” (Bioorg Med Chem Lett, 2006) come the findings set out here.

Assay [1] addresses T1, Amine oxidase [flavin-containing] A (Bos taurus, UniProt P21398).
T1 sequence (P21398 whole entry): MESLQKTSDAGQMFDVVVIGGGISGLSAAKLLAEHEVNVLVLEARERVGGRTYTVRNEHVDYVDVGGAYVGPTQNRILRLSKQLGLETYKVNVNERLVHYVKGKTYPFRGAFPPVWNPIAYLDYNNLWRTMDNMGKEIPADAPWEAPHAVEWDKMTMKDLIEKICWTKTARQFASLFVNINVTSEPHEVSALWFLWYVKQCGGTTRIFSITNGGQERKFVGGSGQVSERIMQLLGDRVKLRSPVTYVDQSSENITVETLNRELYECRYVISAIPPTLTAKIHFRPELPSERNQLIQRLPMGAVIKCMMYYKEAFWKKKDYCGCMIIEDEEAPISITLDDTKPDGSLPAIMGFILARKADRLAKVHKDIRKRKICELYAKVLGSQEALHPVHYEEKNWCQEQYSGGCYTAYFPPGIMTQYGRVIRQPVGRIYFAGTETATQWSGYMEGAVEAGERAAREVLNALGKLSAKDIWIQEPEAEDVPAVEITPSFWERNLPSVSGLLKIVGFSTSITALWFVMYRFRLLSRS
The assay can be described thus: Inhibition of bovine brain mitochondrial MAOA.

Assay [2] concerns the target T2, Amine oxidase [flavin-containing] B (Bos taurus, UniProt P56560).
T2 sequence (P56560 whole entry): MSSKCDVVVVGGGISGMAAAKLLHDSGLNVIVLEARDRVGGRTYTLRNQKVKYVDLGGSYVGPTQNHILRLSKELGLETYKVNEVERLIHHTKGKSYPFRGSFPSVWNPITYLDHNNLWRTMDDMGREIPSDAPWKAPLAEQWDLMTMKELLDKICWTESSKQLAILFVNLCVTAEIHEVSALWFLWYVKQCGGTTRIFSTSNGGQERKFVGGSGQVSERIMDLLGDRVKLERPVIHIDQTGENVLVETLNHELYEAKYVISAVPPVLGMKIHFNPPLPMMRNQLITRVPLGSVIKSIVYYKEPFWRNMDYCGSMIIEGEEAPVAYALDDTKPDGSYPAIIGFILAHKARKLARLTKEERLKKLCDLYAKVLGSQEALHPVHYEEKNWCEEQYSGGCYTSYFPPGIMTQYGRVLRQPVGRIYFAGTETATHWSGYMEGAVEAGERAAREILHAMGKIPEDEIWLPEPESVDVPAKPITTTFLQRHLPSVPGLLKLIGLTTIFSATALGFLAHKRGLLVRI
The assay can be described thus: Inhibition of bovine brain mitochondrial MAOB.

Molecules are shown by their SMILES.

One may read the Ki as a measure of affinity in units of concentration, obtained from inhibition or displacement.

On to `O=C(NCCCCCCNC(=O)c1cc2ccccc2oc1=O)c1cc2ccccc2oc1=O`, for which the Ki is 3.98 nM in assay [1] and 1820 nM in assay [2].

As for `O=C(Nc1ccccc1NC(=O)c1cc2ccccc2oc1=O)c1cc2ccccc2oc1=O`, the figures for the Ki in assay [1] and in assay [2] were 16.2 nM and 3020 nM, respectively.

Take `COc1ccc2cc(C(=O)NCCCCNC(=O)c3cc4ccc(OC)cc4oc3=O)c(=O)oc2c1`: the Ki in assay [1] is 170 nM; in assay [2], 1410 nM.

For `O=C(Nc1ccc(NC(=O)c2cc3ccccc3oc2=O)cc1)c1cc2ccccc2oc1=O`, the Ki in assay [1] was 2400 nM; in assay [2] it was 1740 nM.

Take `O=C(N[C@H]1CCCC[C@@H]1NC(=O)c1cc2ccccc2oc1=O)c1cc2ccccc2oc1=O`: the figures for the Ki in assay [1] and in assay [2] were 182 nM and 1410 nM, respectively.

Regarding `O=C(NCCNC(=O)c1cc2ccccc2oc1=O)c1cc2ccccc2oc1=O`, the Ki in assay [1] was 33.1 nM; in assay [2] it was 6310 nM.

`O=C(NCCCCNC(=O)c1cc2ccccc2oc1=O)c1cc2ccccc2oc1=O`: the inhibitory constant (Ki) in assay [1] was 1 nM; in assay [2], 1000 nM.
